Laboratory results from US11623008B2, “Excipient compositions for mucoadhesive pharmaceutical compositions including a synergistic combination of amylopectin, pullulan, hyaluronic acid, and xyloglucan” (Professional Compounding Centers of America (PCCA), priority 2014, dated 2023).

Columns and labels:
[1] = test system: EpiVaginal tissue model, human vaginal mucosa; test: Safety and toxicological profile on human vaginal mucosa (MTT cell viability); format: cell-based; settings: Triton X-100 at 1%
Experimental: This study was conducted to evaluate the safety and toxicological profile of disclosed excipient compositions in comparison to Triton X-100 (positive control) by employing the EpiVaginal™ tissue model, developed by the MatTek Corporation (Ashland, Mass., USA), which is a highly differentiated 3D model of the human vaginal mucosa. The EpiVaginal™ multi-layered tissue model comprises normal, human-derived vaginal-ectocervical (VEC) epithelial and dendritic cells (DC), cultured and differentiated to resemble the growth and morphological characteristics of the human vaginal mucosa. Triton X-100 is a non-ionic surfactant that can be used as a solubilizer, stabilizer, and emulsifier.
Methodology: Following tissue preparation, within a 6-well plate, 100 μL of disclosed excipient composition at 100% and Triton X-100 at 1% were applied onto separate EpiVaginal tissue samples and left to incubate at 37° C. for 45 minutes to 20 hours. Following incubation, tissues were rinsed twice with Phosphate Buffer Saline (PBS) and excess liquid was removed. A 300 μL of 3-[4,5-dimethylthiazol-2yl]-2,5-diphenyltetrazolium bromide (MTT) solution was then added to the tissues and left to incubate for 3 hours. MTT served as an indicator of cell viability. Succinate dehydrogenase enzymes within the mitochondria of viable cells have the ability to reduce soluble yellow tetrazonium salt of MTT to an insoluble purple formazan derivative. Tissues were then immersed in 2 mL of extraction solution and sealed in a plastic bag to soak overnight at room temperature. Excess liquid was decanted the following day, the remaining extractant solution was agitated, and 200 μL aliquot of each extract was evaluated with a Molecular Device SpectraMax® M5 Microplate Reader. This device quantifies the absorbance potential of the samples at 570 nm, a wavelength absorbed by the formazan derivative.

[2] = test system: EpiOral tissue model (ORL-200), human oral mucosa; test: Safety and toxicological profile on human oral mucosa (MTT cell viability); format: cell-based; settings: excipient composition at 50%, Triton X-100 at 1%; for mean percent viability: mean of two experiments
Experimental: This study was conducted to evaluate the safety and toxicological profile of disclosed excipient compositions in comparison to Triton X-100 (positive control) and distilled water (negative control), using a 3D model of the human oral mucosa. Triton X-100 is a non-ionic surfactant, which is not approved for oral use.
Methodology: The materials used in this study include EpiOral™ tissue samples, disclosed excipient composition (Lot: 6481454) at 50% (diluted in distilled water), and Triton X-100 at 1%. The EpiOral™ tissue model (ORL-200) comprises of normal human-derived non-keratinized oral epithelial cells, cultured and differentiated to resemble the native buccal tissue of the human oral mucosa. Following tissue preparation, 40 μL of disclosed excipient composition at 50% and Triton X-100 at 1% were applied onto separate EpiOral tissue samples and left to incubate at 37° C. Incubation intervals were 1, 4.5, and 20 hours. Application of distilled water on an EpiOral tissue served as the negative control. After the allotted exposure time, each tissue was rinsed twice with phosphate buffer saline (PBS) and excess liquid was removed. Afterwards, 300 μL of 3-[4,5-dimethylthiazol-2yl]-2,5-diphenyltetrazolium bromide (MTT) solution was added to the EpiOral tissues and left to incubate for 3 hours. MTT was used as an indicator of cell viability. Succinate dehydrogenase enzymes within the mitochondria of viable cells have the ability to reduce soluble yellow tetrazonium salt of MTT to an insoluble purple formazan derivative. After 3 hours of exposure to MTT, the tissues were immersed in 2 mL of extraction solution, sealed in a plastic bag, and stored at room temperature overnight. The excess liquid was then decanted and the remaining extractant solution was agitated. A 200 μL aliquot of each extract was evaluated using a Molecular Device SpectraMax® M5 Microplate Reader. This device quantifies the absorbance potential of the samples at 570 nm, a wavelength absorbed by reduced MTT. This experiment was repeated two months following initial testing using identical methodology and the Electrolyte Saliva Gel (PCCA Formula #11150), which consists of sodium chloride, potassium chloride, calcium chloride, and a flavor extract in disclosed excipient composition (Lot: 6481454) at 50% (diluted in distilled water).
Results and Discussion: Toxicological profiles for disclosed excipient composition and the positive control, Triton X-100 at 1%, were compared by examining absorbancy potentials of the extracts collected from both experiments. […] Mean percent cell viabilities were calculated for the two experiments and are illustrated in FIG. 3. […]

How did the percent cell viability ([1]; 45 minutes exposure) turn out when Triton X-100 was run?
Its percent cell viability is 97%.

And the percent cell viability ([1]; 2 hours exposure)?
Its percent cell viability is 26%.

What about the “ET50, time when percent cell viability is reduced to 50%” value ([1]; estimated from semi-log plot) of the same substance?
The value was 86.4 min.

What about the mean percent viability ([2]; 1 hour exposure) of the same substance?
Its mean percent viability is 117%.

What about the mean percent viability ([2]; 4.5 hours exposure) of the same substance?
The mean percent viability was 30%.

And the mean percent viability ([2]; 20 hours exposure)?
Its mean percent viability is 6%.

And the “ET50, the time at which percent viability would be 50%” value ([2]; estimated from semi-log plot)?
The value was 3.2 h.
